From ChEMBL document CHEMBL1137760, “Synthesis and activity of tryptophan sulfonamide derivatives as novel non-hydroxamate TNF-alpha converting enzyme (TACE) inhibitors” (Bioorg Med Chem, 2009)

Key:
[1] = molecular target: Disintegrin and metalloproteinase domain-containing protein 17 (Homo sapiens, UniProt P78536); experiment: Inhibition of TACE by FRET assay
[2] = molecular target: T1, Interstitial collagenase (Homo sapiens, UniProt P03956); experiment: Inhibition of MMP1 by FRET assay
T1 sequence (P03956 whole entry): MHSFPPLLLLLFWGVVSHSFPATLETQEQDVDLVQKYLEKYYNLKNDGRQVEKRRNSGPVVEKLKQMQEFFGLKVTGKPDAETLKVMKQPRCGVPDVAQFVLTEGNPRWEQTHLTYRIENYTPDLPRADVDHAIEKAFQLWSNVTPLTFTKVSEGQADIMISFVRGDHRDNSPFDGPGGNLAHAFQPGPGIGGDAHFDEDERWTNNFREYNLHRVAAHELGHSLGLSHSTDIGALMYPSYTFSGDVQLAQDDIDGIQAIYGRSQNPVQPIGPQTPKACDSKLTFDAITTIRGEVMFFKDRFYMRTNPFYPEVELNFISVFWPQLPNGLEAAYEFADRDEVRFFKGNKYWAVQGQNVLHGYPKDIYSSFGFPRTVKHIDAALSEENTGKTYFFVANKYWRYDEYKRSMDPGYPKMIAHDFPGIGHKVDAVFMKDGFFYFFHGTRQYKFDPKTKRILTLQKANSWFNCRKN

[3] = molecular target: Matrix metalloproteinase-14 (Homo sapiens, UniProt P50281); experiment: Inhibition of MMP14 by […] assay
[4] = molecular target: 72 kDa type IV collagenase (Homo sapiens, UniProt P08253); experiment: Inhibition of MMP2 by […] assay
Sequence of 72 kDa type IV collagenase (P08253 whole entry): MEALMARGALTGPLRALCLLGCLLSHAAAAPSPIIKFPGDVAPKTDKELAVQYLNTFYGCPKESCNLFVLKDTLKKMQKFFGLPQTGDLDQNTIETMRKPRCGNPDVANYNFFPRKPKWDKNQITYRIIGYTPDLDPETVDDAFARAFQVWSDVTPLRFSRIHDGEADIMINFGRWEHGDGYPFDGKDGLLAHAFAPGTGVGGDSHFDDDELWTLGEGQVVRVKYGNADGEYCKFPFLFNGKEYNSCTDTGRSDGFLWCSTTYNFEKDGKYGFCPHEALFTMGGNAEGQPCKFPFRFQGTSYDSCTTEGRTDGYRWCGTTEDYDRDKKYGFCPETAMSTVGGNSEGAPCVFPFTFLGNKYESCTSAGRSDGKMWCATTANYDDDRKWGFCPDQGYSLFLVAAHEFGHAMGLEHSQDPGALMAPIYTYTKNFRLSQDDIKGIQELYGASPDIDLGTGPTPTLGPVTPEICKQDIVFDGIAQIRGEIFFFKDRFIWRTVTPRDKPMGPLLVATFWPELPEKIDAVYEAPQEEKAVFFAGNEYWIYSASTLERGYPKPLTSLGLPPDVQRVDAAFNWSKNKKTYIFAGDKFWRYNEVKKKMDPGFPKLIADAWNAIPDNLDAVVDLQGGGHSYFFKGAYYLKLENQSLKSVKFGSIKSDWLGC

[5] = molecular target: Collagenase 3 (Homo sapiens, UniProt P45452); experiment: Inhibition of MMP13 by […] assay
[6] = molecular target: Disintegrin and metalloproteinase domain-containing protein 17 (Mus musculus, UniProt Q9Z0F8); experiment: Inhibition of TACE in mouse Raw264.7 cells assessed as inhibition of LPS-induced TNFalpha production treated 1 hr before LPS challenge measured 4 hrs post LPS challenge; type: cell-based
Sequence of Disintegrin and metalloproteinase domain-containing protein 17 (Mus musculus, UniProt Q9Z0F8) (Q9Z0F8 whole entry, the tested form may be a part): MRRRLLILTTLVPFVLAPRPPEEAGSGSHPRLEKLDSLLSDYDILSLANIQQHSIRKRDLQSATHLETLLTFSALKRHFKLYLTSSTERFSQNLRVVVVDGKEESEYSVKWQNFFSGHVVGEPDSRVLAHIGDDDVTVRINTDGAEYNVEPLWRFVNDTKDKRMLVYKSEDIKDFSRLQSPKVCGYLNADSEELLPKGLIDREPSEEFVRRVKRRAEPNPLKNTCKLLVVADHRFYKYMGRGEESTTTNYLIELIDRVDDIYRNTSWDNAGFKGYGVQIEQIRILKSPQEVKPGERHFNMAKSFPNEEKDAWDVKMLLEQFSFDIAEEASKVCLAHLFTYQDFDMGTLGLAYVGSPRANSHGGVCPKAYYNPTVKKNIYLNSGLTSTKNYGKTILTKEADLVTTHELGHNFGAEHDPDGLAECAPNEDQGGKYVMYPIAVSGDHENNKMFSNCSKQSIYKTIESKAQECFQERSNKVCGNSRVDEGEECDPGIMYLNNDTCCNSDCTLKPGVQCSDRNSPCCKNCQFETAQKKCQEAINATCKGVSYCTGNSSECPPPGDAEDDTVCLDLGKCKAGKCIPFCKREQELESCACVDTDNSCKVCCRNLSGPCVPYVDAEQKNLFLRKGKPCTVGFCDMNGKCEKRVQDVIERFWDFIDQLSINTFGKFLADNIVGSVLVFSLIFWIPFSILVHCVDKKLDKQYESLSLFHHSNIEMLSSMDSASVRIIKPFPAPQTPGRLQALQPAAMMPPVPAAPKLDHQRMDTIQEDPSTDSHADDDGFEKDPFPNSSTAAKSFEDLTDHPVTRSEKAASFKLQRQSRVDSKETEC

Sequence of Disintegrin and metalloproteinase domain-containing protein 17 (Homo sapiens, UniProt P78536) (P78536 whole entry, the tested form may be a part): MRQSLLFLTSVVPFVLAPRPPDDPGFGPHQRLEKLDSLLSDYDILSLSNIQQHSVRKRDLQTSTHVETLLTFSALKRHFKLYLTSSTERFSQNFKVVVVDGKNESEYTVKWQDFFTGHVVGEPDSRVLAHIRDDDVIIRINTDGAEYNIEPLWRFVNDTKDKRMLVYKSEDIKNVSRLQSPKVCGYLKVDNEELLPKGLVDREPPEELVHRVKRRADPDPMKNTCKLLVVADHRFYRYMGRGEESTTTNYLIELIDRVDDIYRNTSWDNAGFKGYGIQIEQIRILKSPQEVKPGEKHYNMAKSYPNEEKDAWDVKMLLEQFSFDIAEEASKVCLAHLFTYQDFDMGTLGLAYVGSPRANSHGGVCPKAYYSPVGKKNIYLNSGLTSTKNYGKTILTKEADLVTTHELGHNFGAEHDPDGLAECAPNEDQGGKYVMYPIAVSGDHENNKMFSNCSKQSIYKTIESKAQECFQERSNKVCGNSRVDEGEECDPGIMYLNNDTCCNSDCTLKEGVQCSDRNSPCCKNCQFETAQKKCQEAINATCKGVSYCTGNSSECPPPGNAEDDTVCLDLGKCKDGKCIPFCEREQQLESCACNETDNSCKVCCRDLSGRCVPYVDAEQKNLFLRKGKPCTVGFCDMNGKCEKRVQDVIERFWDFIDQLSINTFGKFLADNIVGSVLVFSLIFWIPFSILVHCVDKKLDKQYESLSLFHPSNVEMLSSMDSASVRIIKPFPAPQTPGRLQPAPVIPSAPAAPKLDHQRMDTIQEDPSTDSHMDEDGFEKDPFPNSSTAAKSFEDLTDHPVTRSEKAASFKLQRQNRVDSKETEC

IC50 [1] [nM]	Compound	other results
410	CC#CCOc1ccc(S(=O)(=O)NC(Cc2c(C)n(Cc3cccc(C#N)c3)c3ccc(OC)cc23)C(=O)O)cc1 (configuration not stated)	
1570	CC#CCOc1ccc(S(=O)(=O)NC(Cc2c[nH]c3cc(C)ccc23)C(=O)O)cc1 (racemic)	
300	CC#CCOc1ccc(S(=O)(=O)NC(Cc2c(C)n(CC(C)C)c3ccc(Cl)cc23)C(=O)O)cc1 (racemic)	
320	CC#CCOc1ccc(S(=O)(=O)NC(Cc2c(C)n(Cc3ccc(F)cc3)c3ccc(OC)cc23)C(=O)O)cc1 (racemic)	
1560	CC#CCOc1ccc(S(=O)(=O)NC(Cc2c[nH]c3ccc(F)cc23)C(=O)O)cc1 (racemic)	
630	CC#CCOc1ccc(S(=O)(=O)NC(Cc2c[nH]c3ccc(Br)cc23)C(=O)O)cc1 (racemic)	
340	CC#CCOc1ccc(S(=O)(=O)NC(Cc2c(C)n(Cc3cccc(F)c3)c3ccc(OC)cc23)C(=O)O)cc1 (racemic)	
330	CC#CCOc1ccc(S(=O)(=O)NC(Cc2c(C)n(Cc3ccc(Cl)cc3)c3ccc(Cl)cc23)C(=O)O)cc1 (racemic)	
890	CC#CCOc1ccc(S(=O)(=O)NC(Cc2cn(Cc3ccc(OC)cc3)c3ccc(C)cc23)C(=O)O)cc1 (racemic)	
> 100000	CC#CCOc1ccc(S(=O)(=O)NC(Cc2cn(C)c3ccc(C(=O)O)cc23)C(=O)O)cc1 (racemic)	
1430	CC#CCOc1ccc(S(=O)(=O)N[C@H](Cc2cn(C)c3ccccc23)C(=O)O)cc1	
10100	CC#CCOc1ccc(S(=O)(=O)NC(Cc2c[nH]c3ccc(OC)cc23)C(=O)O)cc1 (single isomer, unassigned; enantiomer 1)	
900	CC#CCOc1ccc(S(=O)(=O)NC(Cc2c(C)n(C)c3ccc(OC)cc23)C(=O)O)cc1 (racemic)	
> 100000	CC#CCOc1ccc(S(=O)(=O)NC(Cc2cn(CC)c3ccc(C(=O)O)cc23)C(=O)O)cc1 (racemic)	
250	CC#CCOc1ccc(S(=O)(=O)NC(Cc2c(C)n(Cc3ccccc3)c3ccc(OC)cc23)C(=O)O)cc1 (racemic)	
1710	CC#CCOc1ccc(S(=O)(=O)N[C@H](Cc2cn(CC3CCC3)c3ccccc23)C(=O)O)cc1	

IC50 [1] [nM]	Compound	other results
2240	CC#CCOc1ccc(S(=O)(=O)NC(Cc2cn(Cc3cccc(OC)c3)c3ccc(OC)cc23)C(=O)O)cc1 (racemic)	
280	CC#CCOc1ccc(S(=O)(=O)NC(Cc2c(C)n(Cc3cccc(OC)c3)c3ccc(OC)cc23)C(=O)O)cc1 (racemic)	
300	CC#CCOc1ccc(S(=O)(=O)NC(Cc2c(C)n(Cc3ccccc3F)c3ccc(OC)cc23)C(=O)O)cc1 (racemic)	
140	CC#CCOc1ccc(S(=O)(=O)NC(Cc2c[nH]c3ccc(OC)cc23)C(=O)O)cc1 (single isomer, unassigned; enantiomer 2)	IC50 [6]: 57000 nM; IC50 [2]: > 50000 nM; IC50 [3]: 20700 nM; IC50 [4]: 1270 nM; IC50 [5]: 13600 nM
190	CC#CCOc1ccc(S(=O)(=O)NC(Cc2c(C)n(Cc3ccc(OC)cc3)c3ccc(Cl)cc23)C(=O)O)cc1 (racemic)	
1610	CC#CCOc1ccc(S(=O)(=O)NC(Cc2c[nH]c3ccc(O)cc23)C(=O)O)cc1 (racemic)	
290	CC#CCOc1ccc(S(=O)(=O)NC(Cc2c(C)n(Cc3ccc(Cl)cc3)c3ccc(OC)cc23)C(=O)O)cc1 (racemic)	
1230	CC#CCOc1ccc(S(=O)(=O)NC(Cc2cn(CC(C)C)c3ccc(OC)cc23)C(=O)O)cc1 (racemic)	
	CC#CCOc1ccc(S(=O)(=O)N[C@H](Cc2c[nH]c3ccc(C)cc23)C(=O)O)cc1	IC50 [6]: 7800 nM; IC50 [2]: > 50000 nM; IC50 [3]: 6820 nM; IC50 [4]: 270 nM; IC50 [5]: 1810 nM
2960	CC#CCOc1ccc(S(=O)(=O)NC(Cc2c[nH]c3cc(F)ccc23)C(=O)O)cc1 (racemic)	
> 100000	CC#CCOc1ccc(S(=O)(=O)NC(Cc2cn(Cc3ccccc3)c3ccc(C(=O)O)cc23)C(=O)O)cc1 (racemic)	
1500	CC#CCOc1ccc(S(=O)(=O)NC(Cc2cn(Cc3ccc4c(c3)OCO4)c3ccc(OC)cc23)C(=O)O)cc1 (racemic)	
2240	CC#CCOc1ccc(S(=O)(=O)NC(Cc2cn(Cc3ccccc3F)c3ccc(OC)cc23)C(=O)O)cc1 (racemic)	
	CC#CCOc1ccc(S(=O)(=O)N[C@H](Cc2cn(Cc3ccc(OC)cc3)c3ccccc23)C(=O)O)cc1	IC50 [6]: > 100000 nM; IC50 [2]: > 50000 nM
470	CC#CCOc1ccc(S(=O)(=O)NC(Cc2c(C)n(Cc3ccc(C#N)cc3)c3ccc(OC)cc23)C(=O)O)cc1 (racemic)	

Compound	IC50 [1] [nM]	other results
CC#CCOc1ccc(S(=O)(=O)NC(Cc2c[nH]c3ccc(OCc4ccccc4)cc23)C(=O)O)cc1 (single isomer, unassigned; enantiomer 2)	370	IC50 [2]: > 50000 nM; IC50 [3]: 19700 nM; IC50 [4]: 3270 nM; IC50 [5]: 4440 nM
CC#CCOc1ccc(S(=O)(=O)NC(Cc2c[nH]c3ccc(OCc4ccccc4)cc23)C(=O)O)cc1 (stereo in doubt; 11h)	6980	
